What was measured:
[1] = for Particle size: MALVERN mastersizer 2000, dispersant: light liquid paraffin; for mean particle diameter: amorphous solid as isolated and dried
[2] = versus product with particle size of above 100 μm
[3] = 75% relative humidity, 40° C.

With `COCCCOc1ccnc(C[S+]([O-])c2nc3ccccc3[nH]2)c1C.[Na]` (racemic) [Example 1, (±)sodium-2-[[[4-(3-methoxypropoxy)-3-methyl-pyridinyl]methyl]sulfinyl]1H-benzimidazole] the Particle size [1] was 10 to 50 μm and the mean particle diameter [1] was 10 to 50 μm.

`COCCCOc1ccnc(C[S+]([O-])c2nc3ccccc3[nH]2)c1C.[Na]` (racemic) [Example 2, (±)sodium-2-[[[4-(3-methoxypropoxy)-3-methyl-pyridinyl]methyl]sulfinyl]1H-benzimidazole] gave a Particle size [1] of 15 to 55 μm and a mean particle diameter [1] of 15 to 55 μm.

`COCCCOc1ccnc(C[S+]([O-])c2nc3ccccc3[nH]2)c1C.[Na]` (racemic) [Example 6 of U.S. Pat. No. 5045552, (±)sodium-2-[[[4-(3-methoxypropoxy)-3-methyl-pyridinyl]methyl]sulfinyl]1H-benzimidazole, reference compound] gave a Particle size [1] of 80 to 150 μm.

With “(±)sodium-2-[[[4-(3-methoxypropoxy)-3-methyl-pyridinyl]methyl]sulfinyl]1H-benzimidazole [amorphous rabeprazole sodium]” the bioavailability [2] was “better bioavailability”, the mean particle diameter [1] was 10 to 55 μm and the stability [3] was “stable”.
